Our source for the IC50 values is the Kinase Knowledgebase extract (Sharma et al. 2016).

This test has as its target CDK2 (human) (UniProt P24941). As to the kind of experiment: Cell-Based Assay.

In general, IC50 refers to the point on the concentration scale where inhibition reaches its midpoint.

Turning to `COc1cc[nH]c1/C=C1\C(=O)Nc2ccc([N+](=O)[O-])c(NC3CCC(O)C3)c21` (stereo unspecified), the IC50 by setting is: (mda-mb-435) 1000 nM; (rko) 339 nM.
`COc1cc[nH]c1/C=C1\C(=O)Nc2ccc([N+](=O)[O-])c(N3CCC(O)CC3)c21` displayed a half-inhibitory concentration (IC50) (rko) of less than 10 nM.
Take `COc1cc[nH]c1/C=C1\C(=O)Nc2ccc([N+](=O)[O-])c(N3CC[C@@H](N)C3)c21`: the 50% inhibitory concentration (IC50) is, setting by setting: (mda-mb-435) less than 10 nM; (rko) less than 10 nM.
In the case of `COc1cc[nH]c1/C=C1\C(=O)Nc2ccc([N+](=O)[O-])c(N3CCC(N)CC3)c21`, the half-inhibitory concentration (IC50) was less than 10 nM (mda-mb-435) and less than 10 nM (rko).
As for `COc1cc[nH]c1/C=C1\C(=O)Nc2ccc([N+](=O)[O-])c(-n3ccnc3)c21`, the concentration for half-maximal inhibition (IC50) (mda-mb-435) was greater than 30000 nM.
Regarding `COc1cc[nH]c1/C=C1\C(=O)Nc2ccc([N+](=O)[O-])c(NC3CCC(N)C3)c21` (stereo unspecified), the IC50 by setting is: (mda-mb-435) 61 nM; (rko) less than 15 nM.
Regarding `COc1cc[nH]c1/C=C1\C(=O)Nc2ccc(F)cc21`, under “mda-mb-435”, the half-inhibitory concentration (IC50) was greater than 30000 nM.
